Experiments:
Type in all cases: in vivo, human
plantar warts = assay: Treatment of plantar warts with A-007 0.25% gel (case report)
Text: Prior attempts at local surgical removal of the warts had failed. […] A-007 was applied in a 0.25% gel (2 g) nightly for three nights and covered with an absorbent pad to allow maximum penetration.

[1] = test system: cervical warts, CIN II, high risk HPV infection; assay: Treatment of cervical warts, CIN II and high risk HPV infection with 0.25% gel (case report)
Description: A person had multiple abnormal pap smears with hair loss and skin changes secondary to hormonal imbalance. […] They were treated with 2 grams per day of 0.25% gel applied to the vagina for five days, for a total topical dose of 10 grams.

[2] = test system: condyloma on cervix, low risk HPV in the 6/11 category; assay: Treatment of condyloma and HPV infection with 0.25% A-007 gel (case report)
Description: They also had atypical squamous epithelium and CIN with warts. The cervix was inflamed with squamous exo-cervical dysplasia and a warty labial growth. They were treated with 2 grams per day of 0.25% A-007 gel applied to the vagina for five days, for a total topical dose of 10 grams. […] The HPV infection was also eliminated, and was absent after 24 months of observation.

With `O=[N+]([O-])c1ccc(NN=C(c2ccc(O)cc2)c2ccc(O)cc2)c([N+](=O)[O-])c1` [A-007, 4,4′-dihydroxybenzophenone-2,4-dinitrophenylhydrazone] the “appearance of treated area” value (plantar warts; 0.25% gel (2 g) nightly for three nights, after 7 days) was “new skin appeared which was soft with no area of induration”, the “recurrence of warts and induration” value (plantar warts; after two months of follow-up observation) was “Neither the warts nor induration returned” and the “time until treated area began peeling and new skin appeared” value (plantar warts; person, left foot, 0.25% gel (2 g) nightly for three nights under absorbent pad) was 7 days. The “warty lesions on cervix” value ([1]; 2 grams per day of 0.25% gel, vagina, five days) was “disappeared”, the CIN outcome ([1]; CIN II, 2 grams per day of 0.25% gel, vagina, five days) was “resolved” and the status at follow-up ([1]; after 18 months of observation) was “stable”. The HPV infection status ([1]; high risk HPV at baseline, 2 grams per day of 0.25% gel, vagina, five days) was “converted to low grade”, the toxicities ([1]; person, 2 grams per day of 0.25% gel applied to the vagina for five days, total 10 grams) was “No toxicities were observed” and the “external warty mass (labial growth)” value ([2]; 2 grams per day of 0.25% A-007 gel, vagina, five days) was “fell off the labia”. The “HPV infection at follow-up” value ([2]; after 24 months of observation) was “absent”, the HPV infection status ([2]; low risk HPV 6/11 at baseline, 2 grams per day of 0.25% A-007 gel, vagina, five days) was “eliminated” and the cervical condyloma ([2]; person, 2 grams per day of 0.25% A-007 gel applied to the vagina for five days, total 10 grams) was “disappeared”.
